The values below come from US12428415B2, “Matriptase 2 inhibitors and uses thereof” (Disc Medicine, Inc., priority 2018, dated 2025).

This test addresses T1, Human Recombinant Matriptase 2 (Homo sapiens, UniProt Q8IU80).
T1 construct: purchased Enzo Life Sciences (an in-house preparation was also used) ALX-201-752-1
T1 sequence (Q8IU80 1-811): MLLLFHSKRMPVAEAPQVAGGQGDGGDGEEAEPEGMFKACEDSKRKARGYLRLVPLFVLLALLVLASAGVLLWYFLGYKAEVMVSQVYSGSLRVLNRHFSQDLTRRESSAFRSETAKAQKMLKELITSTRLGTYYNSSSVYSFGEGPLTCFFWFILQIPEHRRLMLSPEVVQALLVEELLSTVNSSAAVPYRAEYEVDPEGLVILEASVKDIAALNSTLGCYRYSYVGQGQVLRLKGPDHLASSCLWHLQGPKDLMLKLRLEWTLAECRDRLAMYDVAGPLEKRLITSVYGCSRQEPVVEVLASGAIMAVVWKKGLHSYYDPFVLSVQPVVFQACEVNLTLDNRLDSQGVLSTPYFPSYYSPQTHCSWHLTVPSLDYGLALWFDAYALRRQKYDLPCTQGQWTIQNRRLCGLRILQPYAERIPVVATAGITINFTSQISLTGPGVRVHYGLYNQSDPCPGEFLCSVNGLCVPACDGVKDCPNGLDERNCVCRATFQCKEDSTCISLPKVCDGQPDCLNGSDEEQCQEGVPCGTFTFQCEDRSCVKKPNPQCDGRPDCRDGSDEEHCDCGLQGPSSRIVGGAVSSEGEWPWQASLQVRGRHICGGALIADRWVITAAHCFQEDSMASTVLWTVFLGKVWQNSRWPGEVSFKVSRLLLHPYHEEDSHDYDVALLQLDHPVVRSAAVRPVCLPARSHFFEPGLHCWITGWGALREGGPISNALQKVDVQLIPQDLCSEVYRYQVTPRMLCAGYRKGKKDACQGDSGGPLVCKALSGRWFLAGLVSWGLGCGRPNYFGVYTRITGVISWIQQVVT
Kind of test: Matriptase 2 fluorescence based inhibition assay, Method A (100 mM TRIS pH 9, 1 mg/mL BSA). The class given is biochemical. Conditions: 1 uM; Assay Used A; read-out: Mar-2 % inhibition at 1 uM. How it is done:
Test compounds were evaluated for their potential to inhibit Human Recombinant Matriptase 2 (in-house and commercial protein from Enzo Life Sciences—cat log -ALX-201-752-1) using fluorescence based assay. The concentration of Recombinant Matriptase 2 and the substrate used in the assay was: 7 nM (commercial) and 15 nM (Inhouse Matriptase 2) and 100 μM (Boc-Gln-Ala-Arg-7-amido-4-methyl coumarin hydrobromide—Cat log: B4153-Sigma) respectively. The assay buffer used was 100 mM TRIS pH 9, 1 mg/mL BSA. The assay was performed using 384 well black flat bottom plate from grenier (Cat log: 781076) at 25° C. The enzyme and compound was preincubated for 30 mins, plate was read 60 mins after substrate addition at wavelength Ex: 360/Em: 480 nm. The final assay volume was 20 μl. Stock solution of compounds were initially prepared in DMSO and appropriate dilutions were made for screening and IC50 determination (final DMSO conc in the assay was 1%). All the measurements were carried out using the Spectramax M5, Molecular devices. The compounds were screened at 1 and 10 μM concentration and IC50 was determined for the interested compounds.
To determine IC50 values, dose response curves were generated by plotting percentage inhibition as a function of inhibitor concentration and the data was fitted to sigmoidal non-linear regression equation (variable slope) using Graph Pad prism software V7.

`N=C(N)c1ccc2cc(C(=O)N[C@H]3CC[C@H](N)CC3)n(CCc3cccc(Br)c3)c2c1` [Compound I-31]: the inhibition (as a rule, the change of the read-out against control, counted positive when it falls) at 1 µM lay within 25 to 50%.

As to `COc1ccc(CCn2c(C(=O)N[C@H]3CC[C@H](N)CC3)cc3ccc(C(=N)N)cc32)cc1` [Compound I-32], the inhibition at 1 µM was in the range of 25 to 50%.

As for `N=C(N)c1ccc2c(N)c(C(=O)N[C@H]3CC[C@H](N)CC3)n(CCc3ccc(C(F)(F)F)cc3)c2c1` [Compound I-33, 3-Amino-N-((1r,4r)-4-aminocyclohexyl)-6-carbamimidoyl-1-(4-(trifluoromethyl)-phenethyl)-1H-indole-2-carboxamide], the inhibition at 1 µM was 0 to 25%.

On to `N=C(N)c1ccc2cc(C(=O)N[C@H]3CC[C@H](N)CC3)n(CCCc3ccccc3)c2c1` [Compound I-34], for which the inhibition at 1 µM was in the range of 25 to 50%.

Turning to `CCc1ccc(-c2cccc(CCn3c(C(=O)N[C@H]4CC[C@H](N)CC4)cc4ccc(C(=N)N)cc43)c2)cc1` [Compound I-35], the inhibition at 1 µM fell in the range of 25 to 50%.

As to `N=C(N)c1ccc2cc(C(=O)N[C@H]3CC[C@H](N)CC3)n(CS(=O)(=O)c3ccccc3)c2c1` [Compound I-39], the inhibition at 1 µM fell in the range of 25 to 50%.

For the compound `N=C(N)c1ccc2cc(C(=O)Nc3cccc(C(F)(F)F)c3)n(CCS(=O)(=O)c3ccccc3)c2c1` [Compound I-40, 6-Carbamimidoyl-1-(2-(phenylsulfonyl)ethyl)-N-(3-(trifluoromethyl)phenyl)-1H-indole-2-carboxamide], the inhibition at 1 µM was in the range of 0 to 25%.

As for `N=C(N)c1ccc2cc(C(=O)Nc3cccc(F)c3)n(CCS(=O)(=O)c3ccccc3)c2c1` [Compound I-41], the inhibition at 1 µM is 0 to 25%.

Take `N=C(N)c1ccc2cc(C(=O)Nc3ccc(F)cc3)n(CCS(=O)(=O)c3ccccc3)c2c1` [Compound I-42]: the inhibition at 1 µM was 0 to 25%.

Regarding `N=C(N)c1ccc2cc(C(=O)Nc3ccc(C(F)(F)F)cc3)n(CCS(=O)(=O)c3ccccc3)c2c1` [Compound I-43], the inhibition at 1 µM lay in the range of 0 to 25%.

Turning to `N=C(N)c1ccc2cc(C(=O)Nc3ccc(N4CCCC4)cc3)n(CCS(=O)(=O)c3ccccc3)c2c1` [Compound I-44], the inhibition at 1 µM fell in the range of 0 to 25%.

As for `CC1CCC(NC(=O)c2cc3ccc(C(=N)N)cc3n2CCS(=O)(=O)c2ccccc2)CC1` (stereo not shown) [Compound I-46], the inhibition at 1 µM was in the range of 0 to 25%.

As to `N=C(N)c1ccc2cc(C(=O)N[C@@H]3CC=CCC3)n(CCS(=O)(=O)c3ccccc3)c2c1` [Compound I-47], the inhibition at 1 µM was in the range of 0 to 25%.

Turning to `N=C(N)c1ccc2cc(C(=O)NC3CCC(F)(F)CC3)n(CCS(=O)(=O)c3ccccc3)c2c1` [Compound I-48], the inhibition at 1 µM was 25 to 50%.

Regarding `N=C(N)c1ccc2cc(C(=O)NCC3CCCCC3)n(CCS(=O)(=O)c3ccccc3)c2c1` [Compound I-49], the inhibition at 1 µM was in the range of 0 to 25%.

Consider `N=C(N)c1ccc2cc(C(=O)NCC3CCNCC3)n(CCS(=O)(=O)c3ccccc3)c2c1` [Compound I-50], for which the inhibition at 1 µM fell in the range of 50 to 75%.

As for `N=C(N)c1ccc2cc(C(=O)NC[C@H]3CCCNC3)n(CCS(=O)(=O)c3ccccc3)c2c1` [Compound I-51], the inhibition at 1 µM was in the range of 25 to 50%.

Regarding `N=C(N)c1ccc2cc(C(=O)NCC3CCC(O)CC3)n(CCS(=O)(=O)c3ccccc3)c2c1` (stereo not shown) [Compound I-52], the inhibition at 1 µM lay within 0 to 25%.

For the compound `N=C(N)c1ccc2cc(C(=O)NCC3CCC(F)(F)CC3)n(CCS(=O)(=O)c3ccccc3)c2c1` [Compound I-54], the inhibition at 1 µM was in the range of 0 to 25%.

Take `N=C(N)c1ccc2c([N+](=O)[O-])c(C(=O)N[C@H]3CC[C@H](N)CC3)n(CCS(=O)(=O)c3ccccc3)c2c1` [Compound I-55, N-((1r,4r)-4-Aminocyclohexyl)-6-carbamimidoyl-3-nitro-1-(2-(phenylsulfonyl)ethyl)-1H-indole-2-carboxamide]: the inhibition at 1 µM fell in the range of 0 to 25%.

On to `N=C(N)c1ccc2c(N)c(C(=O)N[C@H]3CC[C@H](N)CC3)n(CCS(=O)(=O)c3ccccc3)c2c1` [Compound I-56, 3-Amino-N-((1r,4r)-4-aminocyclohexyl)-6-carbamimidoyl-1-(2-(phenylsulfonyl)ethyl)-1H-indole-2-carboxamide], for which the inhibition at 1 µM lay in the range of 25 to 50%.

For the compound `CCOC(=O)Nc1c(C(=O)NC2CCC(N)CC2)n(CCS(=O)(=O)c2ccccc2)c2cc(/C(N)=N/O)ccc12` (stereo not shown) [Compound I-57, Ethyl (2-(((1r,4r)-4-aminocyclohexyl)carbamoyl)-6-((Z)—N′-hydroxycarbamimidoyl)-1-(2-(phenylsulfonyl)ethyl)-1H-indol-3-yl)carbamate], the inhibition at 1 µM is 0 to 25%.

As to `N=C(N)c1ccc2c(N)c(C(=O)NCC3CCCCC3)n(CCS(=O)(=O)c3ccccc3)c2c1` [Compound I-58, 3-Amino-6-carbamimidoyl-N-(cyclohexylmethyl)-1-(2-(phenylsulfonyl)ethyl)-1H-indole-2-carboxamide], the inhibition at 1 µM was in the range of 0 to 25%.

As for `N=C(N)c1ccc2cc(C(=O)Nc3ccc(F)cc3)n(Cc3ccc(C(N)=O)cc3)c2c1` [Compound I-59, 6-Carbamimidoyl-1-(4-carbamoylbenzyl)-N-(4-fluorophenyl)-1H-indole-2-carboxamide], the inhibition at 1 µM was 0 to 25%.

With `N=C(N)c1ccc2cc(C(=O)Nc3cccc(C(F)(F)F)c3)n(Cc3ccc(C(N)=O)cc3)c2c1` [Compound I-60], the inhibition at 1 µM lay in the range of 0 to 25%.

Turning to `N=C(N)c1ccc2cc(C(=O)Nc3ccc(C(F)(F)F)cc3)n(Cc3ccc(C(N)=O)cc3)c2c1` [Compound I-61], the inhibition at 1 µM is 0 to 25%.

Turning to `N=C(N)c1ccc2cc(C(=O)Nc3cccc(F)c3)n(Cc3ccc(C(N)=O)cc3)c2c1` [Compound I-62], the inhibition at 1 µM is 0 to 25%.

For the compound `C[C@H](NC(=O)c1cc2ccc(C(=N)N)cc2n1Cc1ccc(C(N)=O)cc1)c1ccc(F)cc1` [Compound I-63], the inhibition at 1 µM fell in the range of 0 to 25%.

Take `N=C(N)c1ccc2cc(C(=O)Nc3ccc4c(c3)CCC4)n(Cc3ccc(C(N)=O)cc3)c2c1` [Compound I-64]: the inhibition at 1 µM is 0 to 25%.

As to `N=C(N)c1ccc2cc(C(=O)Nc3ccc(Oc4ccccc4)cc3)n(Cc3ccc(C(N)=O)cc3)c2c1` [Compound I-65], the inhibition at 1 µM fell in the range of 0 to 25%.

As for `N=C(N)c1ccc2cc(C(=O)Nc3ccc(-c4ccccc4)cc3)n(Cc3ccc(C(N)=O)cc3)c2c1` [Compound I-66], the inhibition at 1 µM lay in the range of 0 to 25%.

Take `COc1cccc(NC(=O)c2cc3ccc(C(=N)N)cc3n2Cc2ccc(C(N)=O)cc2)c1` [Compound I-67]: the inhibition at 1 µM lay within 0 to 25%.

As for `CSc1cccc(NC(=O)c2cc3ccc(C(=N)N)cc3n2Cc2ccc(C(N)=O)cc2)c1` [Compound I-68], the inhibition at 1 µM is 0 to 25%.

Consider `COc1ccc(NC(=O)c2cc3ccc(C(=N)N)cc3n2Cc2ccc(C(N)=O)cc2)cc1OC` [Compound I-69], for which the inhibition at 1 µM is 0 to 25%.

On to `C[C@@H](NC(=O)c1cc2ccc(C(=N)N)cc2n1Cc1ccc(C(N)=O)cc1)c1ccccc1` [Compound I-70], for which the inhibition at 1 µM was 0 to 25%.

For `Cc1ccc(NC(=O)c2cc3ccc(C(=N)N)cc3n2Cc2ccc(C(N)=O)cc2)cc1O` [Compound I-71], the inhibition at 1 µM lay within 0 to 25%.

In the case of `C[C@H](NC(=O)c1cc2ccc(C(=N)N)cc2n1Cc1ccc(C(N)=O)cc1)c1ccccc1` [Compound I-72], the inhibition at 1 µM is 0 to 25%.

On to `N=C(N)c1ccc2cc(C(=O)Nc3cccc4cnccc34)n(Cc3ccc(C(N)=O)cc3)c2c1` [Compound I-73], for which the inhibition at 1 µM lay in the range of 25 to 50%.

`N=C(N)c1ccc2cc(C(=O)Nc3ccc4[nH]cnc4c3)n(Cc3ccc(C(N)=O)cc3)c2c1` [Compound I-74]: the inhibition at 1 µM lay within 0 to 25%.

In the case of `N=C(N)c1ccc2cc(C(=O)NCc3cccc(F)c3)n(Cc3ccc(C(N)=O)cc3)c2c1` [Compound I-76], the inhibition at 1 µM lay within 0 to 25%.

Take `N=C(N)c1ccc2cc(C(=O)NCc3ccccc3)n(Cc3ccc(C(N)=O)cc3)c2c1` [Compound I-77]: the inhibition at 1 µM was in the range of 0 to 25%.

As for `N=C(N)c1ccc2cc(C(=O)Nc3ccc(C(=O)N4CCCC4)cc3)n(Cc3ccc(C(N)=O)cc3)c2c1` [Compound I-78], the inhibition at 1 µM was in the range of 0 to 25%.

For the compound `CC(C)c1cccc(NC(=O)c2cc3ccc(C(=N)N)cc3n2Cc2ccc(C(N)=O)cc2)c1` [Compound I-79], the inhibition at 1 µM lay in the range of 0 to 25%.
